The results in this text go back to ChEMBL document CHEMBL1201862, “PubChem BioAssay data set” (2004).

Structures are written as SMILES. Activity calls are given as the source filed them. For most assays here, no stated cut-off is given here; in the data, actives have a measured EC50 and inactives only a lower limit.

In assay [1] the target is T1, Heat shock factor protein 1 (Mus musculus, UniProt P38532).
T1 sequence (P38532 whole entry): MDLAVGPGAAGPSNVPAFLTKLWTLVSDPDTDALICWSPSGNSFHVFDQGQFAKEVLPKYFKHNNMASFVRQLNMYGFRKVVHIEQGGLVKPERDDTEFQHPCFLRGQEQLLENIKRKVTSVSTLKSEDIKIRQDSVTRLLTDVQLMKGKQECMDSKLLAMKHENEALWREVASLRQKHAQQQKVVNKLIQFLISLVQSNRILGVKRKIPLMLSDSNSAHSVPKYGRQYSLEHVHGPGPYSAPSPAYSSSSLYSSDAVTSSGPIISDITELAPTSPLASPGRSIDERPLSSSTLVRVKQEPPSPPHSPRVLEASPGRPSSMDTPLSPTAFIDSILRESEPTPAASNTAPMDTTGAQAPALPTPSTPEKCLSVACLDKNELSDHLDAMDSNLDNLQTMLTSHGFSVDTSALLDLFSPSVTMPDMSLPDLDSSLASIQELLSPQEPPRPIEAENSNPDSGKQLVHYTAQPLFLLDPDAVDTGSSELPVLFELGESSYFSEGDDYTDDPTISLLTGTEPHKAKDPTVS
As to the kind of experiment: inhibition of MG132-induced HSE-luciferase signal, confirmation, cell-based, NIH3T3, luminescence, dose retest (AID 2382).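 Further: NIH3T3 fibroblasts with HSF1-driven luciferase reporter stressed by proteasome inhibitor MG132; luminescence from HSF1-driven luciferase expression after 8 hours of MG132 stress.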 Type of assay: functional.

Assay [2] addresses Cytochrome P450 2D6 (Homo sapiens, UniProt P10635).
Assay [3] has as its system Streptococcus sp. 'group A'. As to the kind of experiment: growth inhibition of control SK(-) GAS strain, dose response, counter-screen for streptokinase expression inhibitor project, luminescence, kanamycin, BacTiterGlo, confirmation (AID 1900). It is filed as functional, organism-based. Background: A counterscreen serves to expose hits that act by an unwanted route or on another target.

For assay [4], the target named is T2, Streptokinase A (Streptococcus pyogenes serotype M1, UniProt P10520).
T2 sequence (P10520 whole entry): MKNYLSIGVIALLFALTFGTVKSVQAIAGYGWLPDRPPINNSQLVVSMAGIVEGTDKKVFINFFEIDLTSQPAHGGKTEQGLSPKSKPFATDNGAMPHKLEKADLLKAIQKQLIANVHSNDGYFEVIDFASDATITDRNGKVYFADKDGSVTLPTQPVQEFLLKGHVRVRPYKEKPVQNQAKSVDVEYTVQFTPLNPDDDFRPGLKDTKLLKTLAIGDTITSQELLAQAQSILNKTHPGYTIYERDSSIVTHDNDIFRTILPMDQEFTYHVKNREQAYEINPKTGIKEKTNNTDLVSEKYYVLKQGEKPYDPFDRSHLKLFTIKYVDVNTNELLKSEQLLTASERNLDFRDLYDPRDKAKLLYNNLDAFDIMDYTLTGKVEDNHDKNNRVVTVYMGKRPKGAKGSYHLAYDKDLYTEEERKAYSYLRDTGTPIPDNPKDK
Put plainly: S. pyogenes streptokinase expression inhibitors, potency, dose response, plasminogen activation absorbance, OD405 (AID 1914).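 Further: secreted streptokinase activity via plasminogen activation per viability signal from cell pellet.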 Type of assay: functional, Streptococcus pyogenes M1 GAS.

Assay [5] deals with Streptococcus. Put plainly: Group A Streptococcus viability loss, dose response, counter-screen for streptokinase expression inhibitor project, luminescence, BacTiterGlo (AID 1915).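 Further: potency for reduction of bacterial viability or growth.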 It is filed as functional, organism-based.
Assay [6] is described as follows: inhibitors of intracellular T. cruzi replication, confirmation, NIH3T3 host cells, beta-gal luminescence (AID 2044).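 Further: intracellular parasites grown in NIH/3T3 mouse fibroblasts as host cells; luminescent beta-galactosidase reporter signal from transgenic T. cruzi replicating inside host cells; inhibitors lower the luminescence signal.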 Type of assay: functional, cell-based.
Assay [7] is described as follows: cytotoxicity toward NIH3T3 fibroblasts, dose response, counter-screen, cell-based, ATP luminescence, mouse fibroblasts (AID 2010).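 Further: cells exposed to compound for about 90 hours before reading.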 Type of assay: functional.
Assay [8] addresses T3, Cytochrome P450 1A2 (Homo sapiens, UniProt P05177).
T3 sequence (P05177 whole entry): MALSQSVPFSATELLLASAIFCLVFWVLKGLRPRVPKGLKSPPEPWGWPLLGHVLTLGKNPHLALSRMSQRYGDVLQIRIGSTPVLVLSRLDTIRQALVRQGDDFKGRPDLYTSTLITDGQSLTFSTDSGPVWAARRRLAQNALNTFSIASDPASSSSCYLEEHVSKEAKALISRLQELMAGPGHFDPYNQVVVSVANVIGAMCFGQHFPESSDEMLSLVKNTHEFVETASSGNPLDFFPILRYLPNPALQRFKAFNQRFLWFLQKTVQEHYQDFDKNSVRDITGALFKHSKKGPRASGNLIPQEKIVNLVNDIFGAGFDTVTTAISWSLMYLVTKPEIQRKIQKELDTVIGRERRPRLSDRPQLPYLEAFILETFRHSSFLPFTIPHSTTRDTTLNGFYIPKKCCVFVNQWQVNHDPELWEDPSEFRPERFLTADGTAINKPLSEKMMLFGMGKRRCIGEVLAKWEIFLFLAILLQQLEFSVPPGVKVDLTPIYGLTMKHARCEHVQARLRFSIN

For assay [9], the target named is Paired box protein Pax-8 (Homo sapiens, UniProt Q06710). Put plainly: inhibitors of PAX8-driven TPO luciferase reporter, dose response, RMG-I cells, cherry-pick (AID 687027).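 Further: luciferase reporter driven by Pax8 target thyroperoxidase promoter measured by SteadyGlo luminescence.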 It is filed as functional, cell-based. For orientation: Reporter assays use an easily measured gene product as a stand-in for the process of interest.
Sequence of Paired box protein Pax-8 (Q06710 whole entry): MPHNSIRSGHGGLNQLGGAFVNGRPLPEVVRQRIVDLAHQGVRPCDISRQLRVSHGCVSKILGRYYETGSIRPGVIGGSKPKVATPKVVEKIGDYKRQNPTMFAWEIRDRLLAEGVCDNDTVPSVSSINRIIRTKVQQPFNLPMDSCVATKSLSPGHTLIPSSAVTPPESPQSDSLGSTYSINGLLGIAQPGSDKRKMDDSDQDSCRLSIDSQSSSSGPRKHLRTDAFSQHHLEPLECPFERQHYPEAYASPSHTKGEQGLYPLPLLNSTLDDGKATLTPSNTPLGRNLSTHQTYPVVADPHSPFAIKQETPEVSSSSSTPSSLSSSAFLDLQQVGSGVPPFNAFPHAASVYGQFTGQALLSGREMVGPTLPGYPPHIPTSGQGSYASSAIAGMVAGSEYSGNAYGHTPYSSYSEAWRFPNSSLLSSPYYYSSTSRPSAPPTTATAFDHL

Sequence of Cytochrome P450 2D6 (P10635 whole entry): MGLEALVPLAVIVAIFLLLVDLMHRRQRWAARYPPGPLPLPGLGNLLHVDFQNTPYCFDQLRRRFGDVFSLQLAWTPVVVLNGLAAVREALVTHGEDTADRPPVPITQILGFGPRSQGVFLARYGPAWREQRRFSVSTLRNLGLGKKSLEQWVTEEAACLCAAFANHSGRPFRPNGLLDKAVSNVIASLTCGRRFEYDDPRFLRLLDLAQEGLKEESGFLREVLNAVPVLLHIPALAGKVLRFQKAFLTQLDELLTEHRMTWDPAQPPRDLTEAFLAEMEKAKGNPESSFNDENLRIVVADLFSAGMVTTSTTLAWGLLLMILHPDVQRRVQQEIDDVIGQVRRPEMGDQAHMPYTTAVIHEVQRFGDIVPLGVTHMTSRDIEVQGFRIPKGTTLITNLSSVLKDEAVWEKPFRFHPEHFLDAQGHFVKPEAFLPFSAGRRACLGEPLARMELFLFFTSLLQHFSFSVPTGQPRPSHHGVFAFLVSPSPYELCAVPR

For orientation: EC50 means the concentration at which the effect is half-maximal. With `CC1CCCN(CCCOc2ccc(Cl)cc2Br)C1` (stereo unspecified), in [1], the EC50 was > 195 µM (not active).
What is called AC50 is the midpoint of the concentration-response curve, whichever way the signal moves. For the compound `COc1ccccc1-c1cc(NCc2cccc(C)c2)ncn1`, the AC50 in [2] was 20 µM (inconclusive).
Turning to `CCOc1ccc(N(CC(=O)NCc2ccc(C)cc2)S(=O)(=O)c2c(C)nc(O)nc2O)cc1`, the concentration giving a half-maximal response (EC50) in assay [3], in [4] and in [5] was > 150 µM (not active) in each case.
Consider `Cc1nc2cnc(Oc3ccccc3)nc2n(Cc2cccs2)c1=O`, for which, in assay [2], the AC50 was 31.6 µM (inconclusive).
`Cc1noc(C)c1COc1ccc(C(=O)OCC(=O)Nc2c(C)n(C)n(-c3ccccc3)c2=O)cc1`: the EC50 in assay [1] is reported as > 195 µM (not active).
`c1ccc2c(NC3CCNCC3)nc(-c3ccoc3)nc2c1`: the AC50 in [2] was 7.94 µM (inconclusive).
As for `O=C(Nc1ccc(S(=O)(=O)N2CCc3ccccc32)cc1)c1ccc2c(c1)OCO2`, the EC50 in assay [6] is 3.4 µM (active); in assay [7] it was > 60 µM (not active).
For `CCCn1c(=O)n(C)c(=O)c2c(SCC(=O)NC34CC5CC(CC(C5)C3)C4)nc(CC(C)C)nc21`, in that order: > 60 µM (not active) and > 60 µM (not active).
On to `COc1cc(CNCc2cccs2)ccc1OCC(N)=O`, for which, in [8], the AC50 was 39.8 µM (inconclusive).
For `O=C1NC(=O)N(Cc2ccccc2)C(=O)/C1=C/NCCN1CCNCC1`, in [1], the EC50 is given as > 195 µM (not active).
Turning to `COCC1=C(C(=O)OC(C)OC(=O)OC(C)C)N2C(=O)[C@@H](NC(=O)/C(=N\OC)c3csc(N)n3)[C@H]2SC1` (stereo partly specified) [CEFPODOXIME PROXETIL], the EC50 in assay [3] was 0.697 µM (active); in assay [5], 0.987 µM (active).
For `COc1cccc(-n2ccnc2SCC(=O)Nc2ccccc2F)c1`, in assay [1], the EC50 was > 195 µM (not active).
In the case of `O=C(O)CCN1C(=S)CSC1=S`, the concentration at half-maximal activity (AC50) in [8] was 5.01 µM (inconclusive).
As to `O=C(CN1C(=O)C2C3C=CC(C3)C2C1=O)OCC(=O)c1ccc(Br)cc1` (stereo unspecified), the EC50 in assay [1] is reported as > 195 µM (not active).
Consider `Cc1nc(Nc2ccc3c(c2)OCCO3)c2nnn(Cc3ccccc3Cl)c2n1`, for which the EC50 was 2.74 µM (active) in [6], 3.43 µM (active) in assay [1] and > 60 µM (not active) in assay [7].
For the compound `COC(=O)c1ccc(N2CCC(c3cc(-c4ccc(OC)cc4)[nH]n3)CC2)c([N+](=O)[O-])c1`, the figures for the EC50 in assay [3] and in assay [5] were 3.87 µM (active) and 44.2 µM (active), respectively.
In the case of `Oc1ccccc1/C=N/NC(=S)NC1CC2C=CC1C2` (stereo unspecified), the EC50 in assay [3] is 5.04 µM (active); in assay [4], > 16 µM (not active); in [5] it was > 16 µM (not active).
For `Cc1noc(C)c1NC(=O)Nc1cccc2c1O[C@H](CN(C)Cc1ccc(C(F)(F)F)cc1)[C@H](C)CN([C@@H](C)CO)C2=O`, the AC50 in [9] was 27.5 µM (active).
With `COc1ccc(NC(=O)c2ccc([N+](=O)[O-])cc2[N+](=O)[O-])c(OC)c1`, the EC50 in assay [6] is 1.16 µM (active); in [7] it was > 30 µM (not active).
For the compound `COc1ccc(-c2ncn(CCC#N)c2[N+](=O)[O-])cc1`, the EC50 in assay [3] was 3.52 µM (active); in [4] it was > 150 µM (not active); in [5], 5.92 µM (active).
For `Cc1nn(-c2ccccc2)c(Cl)c1C1C(C#N)=C(N)Oc2c1c(=O)oc1ccccc21` (stereo unspecified), the EC50 in assay [3] is 0.197 µM (active); in assay [5], 0.344 µM (active).
`CCOC(=O)C1CCN(c2c(NCc3ccc(C(=O)Nc4ccc(C)cc4)cc3)c(=O)c2=O)CC1`: the EC50 in assay [1] was > 195 µM (not active).
Same read-out and setting: under `Cc1ccc(OCc2nnc(SC(C)C(=O)O)n2-c2ccccc2)cc1` (stereo unspecified) stands > 195 µM (not active).
In the case of `CCN1CCN(CCOc2ccc(Cl)cc2)CC1`, the EC50 in [6] is 0.176 µM (active); in assay [7] it was > 30 µM (not active).
`CC1CCN(S(=O)(=O)c2ccc(NC(=O)CN3CCN(C)CC3)cc2)CC1`: the EC50 in [6] is 0.738 µM (active); in assay [7] it was > 60 µM (not active).
For `Cc1ccc2oc(=O)cc(CN3CCN(C/C=C/c4ccccc4)CC3)c2c1`, the EC50 in assay [6] was 0.293 µM (active); in [7], > 60 µM (not active).
On to `CCOc1ccc(NC(=O)C2CCCN(c3nn4c(=O)cc(C)nc4s3)C2)cc1` (stereo unspecified), for which the EC50 in [1] is > 195 µM (not active).
With `CC(C)/C(=N/Nc1ccccc1[N+](=O)[O-])c1ccccc1`, the EC50 is 6.63 µM (active) in assay [3], 18.4 µM (active) in assay [4] and 52.5 µM (active) in assay [5].
Regarding `O=C(N/N=C/c1ccc(F)cc1)c1ccc(OCc2ccccc2)cc1`, in assay [1], the half-maximal effective concentration (EC50) was > 195 µM (not active).
On to `O=C(NCCCn1ccnc1)c1nn2c(C(F)(F)F)cc(-c3ccccc3)nc2c1Cl`, for which the EC50 in [3], in assay [4] and in [5] was > 150 µM (not active) in each case.
On to `CSCC[C@H](NC(=O)N1CCn2c1nc1ccccc12)C(=O)NC1CC1`, for which the EC50 in [1] is recorded as > 195 µM (not active).
`C[C@@H]1CCCCO[C@@H](CN(C)S(=O)(=O)c2ccc(Cl)cc2)[C@H](C)CN([C@@H](C)CO)C(=O)c2cc(NS(=O)(=O)c3ccc(Cl)cc3)ccc2O1`: the AC50 in assay [9] is 2.78 µM (active).
`Cc1ccc(CN2CCN(Cc3ccccc3)CC2)cc1`: the EC50 in assay [6] was 0.143 µM (active); in [7] it was > 60 µM (not active).
As for `O=C(Nc1ccc(Br)cc1)C1CCC(=O)N1Cc1ccccc1Cl` (stereo unspecified), the AC50 in assay [8] is 14.1 µM (inconclusive).
Take `O=C(O)c1cccc(NC(=S)NC(=O)c2ccc3ccccc3c2)c1`: the EC50 in assay [1] was 20.6 µM (active).
`C[C@H]1CCCCO[C@@H](CN(C)Cc2ccc(C(F)(F)F)cc2)[C@@H](C)CN([C@@H](C)CO)C(=O)c2cc(NS(=O)(=O)c3cccs3)ccc2O1`: the AC50 in assay [9] was 7.2 µM (active).
On to `O=S(=O)(NCc1ccccn1)c1ccc(F)cc1`, for which, in assay [1], the EC50 was > 195 µM (not active).
With `COc1ccccc1NC(=O)/C=C1\SCC(=O)N1C`, the EC50 in assay [6] was 0.949 µM (active); in assay [7], > 60 µM (not active).
Consider `O=C(Cn1cnc2cc([N+](=O)[O-])ccc2c1=O)Nc1ccc2c(c1)CCC2`, for which the EC50 in assay [6] was 0.5 µM (active); in assay [7], > 60 µM (not active).
Turning to `COC(=O)[C@@]12C[C@@H](CC(=O)N3CCN(C(=O)c4ccco4)CC3)C(=O)N(Cc3ccco3)C1=CCC(C)(C)C2`, the AC50 in assay [9] is 2.44 µM (active).
With `Cc1nc2cc(-c3ccccc3)nn2c(C)c1CCC(=O)NC(C)c1ccc2c(c1)OCCO2` (stereo unspecified), in assay [1], the EC50 is on record as > 195 µM (not active).
For the compound `CN(C)C(=O)c1ccc(-c2cncnc2NCc2ccccc2)cc1`, the AC50 in assay [8] is 20 µM (inconclusive).
`CCCc1nnc(NC(=O)CCC(=O)N2CCN(S(=O)(=O)c3ccc(F)cc3)CC2)s1`: the EC50 in [1] was > 195 µM (not active).
As for `O=C(CSc1nc(Nc2ccccc2)nc(N2CCOCC2)n1)Nc1ccc([N+](=O)[O-])cc1`, the EC50 in assay [6] is 2.18 µM (active); in assay [7] it was > 60 µM (not active).
Take `CCCCCCn1c(=O)c(C(=O)N/N=C/c2cccc(F)c2)c(O)c2ccccc21`: the EC50 in assay [3] was 11.6 µM (active); in [5], 16.1 µM (active).
